The values that follow come from patent US10287251B2, “Pyrazole derivative or pharmaceutically acceptable salt thereof” (KISSEI PHARMACEUTICAL CO., LTD., priority 2015, dated 2019).

For the first assay, the target named is T1, TRPM8 (Rattus norvegicus, UniProt Q8R455).
T1 construct: from tissue; host or cells: whole animal, female SD rats (in vivo)
T1 sequence (Q8R455 whole entry): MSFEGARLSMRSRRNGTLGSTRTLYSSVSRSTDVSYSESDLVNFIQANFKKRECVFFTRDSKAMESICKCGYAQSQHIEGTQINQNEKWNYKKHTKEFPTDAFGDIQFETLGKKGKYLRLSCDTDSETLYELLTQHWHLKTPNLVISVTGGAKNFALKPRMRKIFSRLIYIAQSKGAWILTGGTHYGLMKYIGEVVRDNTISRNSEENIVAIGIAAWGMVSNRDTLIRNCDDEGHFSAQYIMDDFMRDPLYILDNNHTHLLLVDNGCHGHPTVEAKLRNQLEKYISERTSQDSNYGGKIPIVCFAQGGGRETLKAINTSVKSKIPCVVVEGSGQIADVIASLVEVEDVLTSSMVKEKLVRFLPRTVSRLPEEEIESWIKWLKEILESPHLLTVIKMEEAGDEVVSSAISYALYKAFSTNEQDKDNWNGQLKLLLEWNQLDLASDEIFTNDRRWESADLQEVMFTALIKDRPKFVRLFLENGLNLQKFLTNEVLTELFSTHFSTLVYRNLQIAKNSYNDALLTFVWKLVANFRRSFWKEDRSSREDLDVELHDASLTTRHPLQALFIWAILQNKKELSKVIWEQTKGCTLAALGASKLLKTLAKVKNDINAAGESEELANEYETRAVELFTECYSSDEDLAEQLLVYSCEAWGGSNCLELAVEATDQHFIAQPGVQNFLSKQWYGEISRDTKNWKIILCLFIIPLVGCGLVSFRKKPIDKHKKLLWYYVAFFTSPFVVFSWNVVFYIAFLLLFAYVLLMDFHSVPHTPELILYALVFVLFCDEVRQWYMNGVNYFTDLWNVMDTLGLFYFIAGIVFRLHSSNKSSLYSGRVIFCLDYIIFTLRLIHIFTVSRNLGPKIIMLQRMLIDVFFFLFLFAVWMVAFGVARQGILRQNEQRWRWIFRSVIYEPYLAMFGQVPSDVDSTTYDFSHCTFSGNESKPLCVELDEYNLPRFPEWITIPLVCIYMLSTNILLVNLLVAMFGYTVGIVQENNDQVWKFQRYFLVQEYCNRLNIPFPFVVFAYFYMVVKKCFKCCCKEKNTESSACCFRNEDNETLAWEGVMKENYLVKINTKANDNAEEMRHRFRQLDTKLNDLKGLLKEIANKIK
The assay can be described thus: Confirmation test of inhibitory effects on icilin-induced wet-dog shakes. Type of assay: in vivo. The conditions noted are these: female SD rats, oral dose 0.3 mg/kg, icilin 1 mg/kg i.p. 1 hour after dosing, shakes counted for 5 minutes. From the text:
Further, TRPM8 inhibitory activity can be evaluated by the efficacy inhibiting the wet-dog shake action which is induced by the administration of Icilin, TRPM8 agonist. Furthermore, an effect on overactive bladder (OAB) can be evaluated by an elongation of micturition interval against overactive bladder induced by acetic acid in accordance with a similar method described in J. Urol., 2001, 166, 1142.
Confirmation Test of Inhibitory Effects on Icilin-induced Wet-dog Shakes
Test compounds were dissolved in dimethylacetamide (wako), and 0.5% methylcellulose solution (wako) was added to make the solution or suspension containing 5% of dimethylacetatnide. At a dose of 0.3 to 10 mg/kg/5mL of test compounds were orally administered to female SD rats. After 1 hour, wet-dog shakes were induced by the intraperitoneal injection of icilin (1 mg/kg) which was dissolved in polyethylene glycol 400 (wako). From 5 minutes after the administration of icilin, wet-dog shakes were counted for 5 minutes. For control example, vehicle (a mixture of dimethylacetamide (wako): 0.5% methylcellulose (wako)=5:95) was administrated similarly, and the number of wet-dog shakes was counted in the same manner. A percent inhibition of wet-dog shakes by test compound was calculated from the following formula: [1-(test compound wet-dog shake count/vehicle wet-dog shake count)]×100.
Turning to `CO[C@H](CO)[C@@H](Cn1nccn1)NC(=O)c1cccc(F)c1-c1n[nH]c(-c2ccc(F)cc2)c1F` [Example 27-30], the “% inhibition of Wet-Dog Shake” value stood at 62%.

Staying with this assay, now noted: female SD rats, oral dose 1 mg/kg, icilin 1 mg/kg i.p. 1 hour after dosing, shakes counted for 5 minutes.
Take `O=C(N[C@@H](CO)C(F)(F)c1ccccn1)c1cccc(F)c1-c1cc(-c2ccc(F)cc2)[nH]n1` [Example 1-230]: the “% inhibition of Wet-Dog Shake” value is 59%.

As to `CCO[C@H](CO)[C@@H](Cc1ccccn1)NC(=O)c1cccc(F)c1-c1cc(-c2ccc(F)cc2)[nH]n1` [Example 43-15], the “% inhibition of Wet-Dog Shake” value came to 73%.

In the case of `O=C(N[C@H](Cc1ccccn1)[C@@H](F)CO)c1cccc(F)c1-c1cc(-c2ccc(F)cc2)[nH]n1` [Example 43-23], the “% inhibition of Wet-Dog Shake” value was 100%.

Consider `CO[C@H](CO)[C@@H](Cn1nccn1)NC(=O)c1cccc(F)c1-c1cc(-c2ccc(F)cc2)[nH]n1` [Example 27-22], for which the “% inhibition of Wet-Dog Shake” value was determined as 100%.

`O=C(N[C@H](Cc1ncccn1)[C@H](F)CO)c1cccc(F)c1-c1cc(-c2ccc(F)cc2)[nH]n1` [Example 43-29]: the “% inhibition of Wet-Dog Shake” value stood at 79%.

As for `CC(C)(O)[C@@H](Cc1ccccn1)NC(=O)c1cccc(F)c1-c1n[nH]c(-c2ccc(F)cc2)c1F` [Example 33-2], the “% inhibition of Wet-Dog Shake” value turned out to be 88%.

Turning to `CO[C@H](CO)[C@@H](Cc1ncccn1)NC(=O)c1cccc(F)c1-c1n[nH]c(-c2ccc(F)cc2)c1F` [Example 27-18], the “% inhibition of Wet-Dog Shake” value came to 86%.

As to `CO[C@H](CO)[C@@H](Cc1nccs1)NC(=O)c1cccc(F)c1-c1cc(-c2ccc(F)cc2)[nH]n1` [Example 27-19], the “% inhibition of Wet-Dog Shake” value is given as 80%.

The assay is the same for the next values; noted with them: female SD rats, oral dose 3 mg/kg, icilin 1 mg/kg i.p. 1 hour after dosing, shakes counted for 5 minutes.
Regarding `O=C(N[C@H](Cn1cccn1)[C@H](F)CO)c1cccc(F)c1-c1cc(-c2ccc(Cl)cc2)[nH]n1` [Example 43-44], the “% inhibition of Wet-Dog Shake” value worked out at 69%.

In the case of `O=C(N[C@@H](CO)Cc1ccccc1)c1ccccc1-c1cc(-c2ccc(F)c(F)c2)[nH]n1` [Example 1-62], the “% inhibition of Wet-Dog Shake” value was 55%.

For `O=C(N[C@@H](CO)Cc1ccccn1)c1ccccc1-c1cc(-c2ccc(F)c(F)c2)[nH]n1` [Example 1-29], the “% inhibition of Wet-Dog Shake” value was found to be 66%.

On to `O=C(N[C@@H](CO)Cc1nccs1)c1cccc(F)c1-c1cc(-c2ccc(F)cc2)[nH]n1` [Example 1-177], for which the “% inhibition of Wet-Dog Shake” value worked out at 59%.

As for `Cc1cccnc1C[C@H](CCO)NC(=O)c1cccc(F)c1-c1cc(-c2ccc(F)cc2)[nH]n1` [Example 1-117], the “% inhibition of Wet-Dog Shake” value amounted to 46%.

On to `C[C@H](O)[C@@H](Cc1ccccc1)NC(=O)c1cccc(F)c1-c1cc(-c2ccc(F)cc2)[nH]n1` [Example 1-104], for which the “% inhibition of Wet-Dog Shake” value is listed as 60%.

With `O=C(N[C@H](Cc1ccccn1)[C@@H](O)CO)c1cccc(F)c1-c1cc(-c2ccc(F)cc2)[nH]n1` [Example 54-6], the “% inhibition of Wet-Dog Shake” value was determined as 47%.

As to `O=C(N[C@H](Cc1ccccn1)C(CO)CO)c1cccc(F)c1-c1cc(-c2ccc(F)cc2)[nH]n1` [Example 35-3], the “% inhibition of Wet-Dog Shake” value is 69%.

With `O=C(NC(CCO)Cc1ccccn1)c1ccccc1-c1cc(-c2ccc(F)cc2)[nH]n1` (stereo not shown) [Example 26-2], the “% inhibition of Wet-Dog Shake” value came out at 69%.

For the compound `CC(O)[C@@H](Cc1ccccn1)NC(=O)c1cccc(F)c1-c1cc(-c2ccc(F)cc2)[nH]n1` (stereo partly shown) [Example 1-113], the “% inhibition of Wet-Dog Shake” value was determined as 98%.

For the compound `CC(CO)(CO)[C@@H](Cc1ccccn1)NC(=O)c1cccc(F)c1-c1cc(-c2ccc(Cl)cc2)[nH]n1` [Example 35-1, 2-[5-(4-Chlorophenyl)-1H-pyrazol-3-yl]-3-fluoro-N-[(2R)-4-hydroxy-3-(hydroxymethyl)-3-methyl-1-(pyridin-2-yl)butan-2-yl]benzamide], the “% inhibition of Wet-Dog Shake” value is 42%.

For the compound `O=C(N[C@H](Cn1cccn1)[C@H](F)CO)c1cccc(F)c1-c1cc(-c2ccc(F)cc2F)[nH]n1` [Example 43-46], the “% inhibition of Wet-Dog Shake” value stood at 70%.

As for `O=C(N[C@@H](CCO)Cc1ccccn1)c1cccc(F)c1-c1n[nH]c(-c2ccc(Cl)cc2)c1F` [Example 1-154], the “% inhibition of Wet-Dog Shake” value was found to be 75%.

With `C[C@@](Cc1ccccc1)(NC(=O)c1cccc(F)c1-c1cc(-c2ccc(F)cc2)[nH]n1)C(N)=O` [Example 24-1, (2S)-2-{3-Fluoro-2-[5-(4-fluorophenyl)-1H-pyrazol-3-yl]benzoylamino}-2-methyl-3-phenylpropanamide], the “% inhibition of Wet-Dog Shake” value was determined as 71%.

Consider `O=C(N[C@@H](CCO)Cc1ccccn1)c1cccc(F)c1-c1cc(-c2ccc(Cl)cc2)[nH]n1` [Example 1-131], for which the “% inhibition of Wet-Dog Shake” value was determined as 94%.

On to `CO[C@H](CO)[C@@H](Cc1ccccn1)NC(=O)c1cccc(F)c1-c1n[nH]c(-c2ccc(F)cc2)c1Cl` [Example 43-36], for which the “% inhibition of Wet-Dog Shake” value stood at 31%.

As to `O=C(N[C@@H](CCO)Cc1ccccn1)c1ccccc1-c1n[nH]c(-c2ccc(Cl)cc2)c1F` [Example 1-223], the “% inhibition of Wet-Dog Shake” value stood at 100%.

Consider `CC(C)(O)[C@@H](Cc1ccccn1)NC(=O)c1cccc(Cl)c1-c1cc(-c2ccc(F)cc2)[nH]n1` [Example 33-3], for which the “% inhibition of Wet-Dog Shake” value worked out at 32%.

In the case of `O=C(N[C@@H](Cc1ccccn1)[C@H](F)CO)c1cccc(F)c1-c1cc(-c2ccc(F)cc2)[nH]n1` [Example 43-25], the “% inhibition of Wet-Dog Shake” value is given as 100%.

Take `O=C(N[C@@H](CO)Cc1ncccc1C(F)(F)F)c1cccc(F)c1-c1cc(-c2ccc(F)cc2)[nH]n1` [Example 1-197]: the “% inhibition of Wet-Dog Shake” value amounted to 44%.

With `C[C@H](O)C[C@@H](Cc1ccccn1)NC(=O)c1cccc(F)c1-c1cc(-c2ccc(F)cc2)[nH]n1` [Example 1-130], the “% inhibition of Wet-Dog Shake” value turned out to be 92%.

Consider `O=C(N[C@@H](CO)Cc1cscn1)c1cccc(F)c1-c1cc(-c2ccc(F)cc2)[nH]n1` [Example 1-182], for which the “% inhibition of Wet-Dog Shake” value amounted to 37%.

On to `NC(=O)[C@@H](Cc1ccccn1)NC(=O)c1cccc(F)c1-c1cc(-c2ccc(F)cc2)[nH]n1` [Example 37-1, (2R)-2-{3-Fluoro-2-[-5-(4-fluorophenyl)-1H-pyrazol-3-yl]benzoylamino}-3-(pyridin-2-yl)propanamide], for which the “% inhibition of Wet-Dog Shake” value is recorded as 38%.

Consider `O=C(N[C@@H](CO)Cc1ncccc1Cl)c1cccc(F)c1-c1cc(-c2ccc(F)cc2)[nH]n1` [Example 39-2], for which the “% inhibition of Wet-Dog Shake” value turned out to be 50%.

On to `O=C(N[C@@H](CO)Cc1ccccc1)c1cccc(F)c1-c1cc(-c2ccc(F)cc2)[nH]n1` [Example 1-86], for which the “% inhibition of Wet-Dog Shake” value is 76%.

Consider `C[C@H](O)C[C@H](NC(=O)c1cccc(F)c1-c1cc(-c2ccc(F)cc2)[nH]n1)C(O)c1ccccn1` (stereo partly shown) [Example 54-4], for which the “% inhibition of Wet-Dog Shake” value was 50%.

For `O=C(N[C@H](Cc1ccccn1)[C@H](F)CO)c1cccc(F)c1-c1cc(-c2ccc(Cl)cc2)[nH]n1` [Example 50-7], the “% inhibition of Wet-Dog Shake” value was 99%.

Turning to `O=C(N[C@@H](CCO)Cc1ccccn1)c1cccc(Cl)c1-c1cc(-c2ccc(F)cc2)[nH]n1` [Example 36-1, 3-Chloro-2-[5-(4-fluorophenyl)-1H-pyrazol-3-yl]-N-[(2R)-4-hydroxy-1-(pyridin-2-yl)butan-2-yl]benzamide], the “% inhibition of Wet-Dog Shake” value worked out at 39%.

The assay is the same for the next values; noted with them: female SD rats, oral dose 10 mg/kg, icilin 1 mg/kg i.p. 1 hour after dosing, shakes counted for 5 minutes.
As to `O=C(NCCc1ccccn1)c1cccc(OC(F)(F)F)c1-c1cc(-c2ccccc2)[nH]n1` [Example 4-1, 2-(5-Phenyl-1H-pyrazol-3-yl)-N-[2-(pyridin-2-yl)ethyl]-3-trifluoromethoxybenzamide], the “% inhibition of Wet-Dog Shake” value was 70%.

Take `O=C(N[C@@H](CO)Cc1ccccn1)c1c(F)cccc1-c1cc(-c2ccc(F)cc2)[nH]n1` [Example 1-94]: the “% inhibition of Wet-Dog Shake” value was 100%.

With `O=C(NCCc1ccccn1)c1ccccc1-c1cc(-c2ccccc2)[nH]n1` [Example 1-3], the “% inhibition of Wet-Dog Shake” value was 66%.

In the case of `NC(=O)[C@@H](Cc1ccccn1)NC(=O)c1ccccc1-c1cc(-c2ccccc2)[nH]n1` [Example 1-15], the “% inhibition of Wet-Dog Shake” value was found to be 54%.

`O=C(N[C@@H](CO)Cc1ccccn1)c1ccccc1-c1cc(-c2ccccc2)[nH]n1` [Example 1-27]: the “% inhibition of Wet-Dog Shake” value is recorded as 68%.

As to `O=C(N[C@@H](CO)Cc1ccccn1)c1ccccc1-c1cc(-c2ccc(Cl)c(F)c2)[nH]n1` [Example 1-85], the “% inhibition of Wet-Dog Shake” value was determined as 86%.
